Measurements published in patent US7521478B2, “Total synthesis of myriaporones” (Pharma Mar, S.A.U., priority 2002, dated 2009).

What was measured:
Type in all cases: cell-based
SK-MEL-28 = assay: Inhibition of cell growth by colorimetric SRB assay, MEL-28; details: Homo sapiens, SK-MEL-28, MEL-28, 48 hours exposure; for CC50: cell killing, read-out: LC50 (the source's name); for IC (total growth inhibition): read-out: TGI
Summary of the method: (§1)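 Absorbance of solubilized bound SRB (490 nm) quantified cell growth and viability after cells were exposed to compound for 48 h. Seeding was 5×10^3 cells per well in RPMI 1640/10% FBS, with 18 h attachment beforehand. GI, TGI and LC were calculated from means of triplicate wells.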

HeLa = assay: Inhibition of cell growth by colorimetric SRB assay, HELA; details: Homo sapiens, HELA, 48 hours exposure; for CC50: cell killing, read-out: LC50 (the source's name); for IC (total growth inhibition): read-out: TGI
Summary of the method: as §1

LoVo = assay: Inhibition of cell growth by colorimetric SRB assay, LOVO; details: Homo sapiens, LOVO, 48 hours exposure; for LC50: cell killing, read-out: LC50; for IC (total growth inhibition): read-out: TGI
Summary of the method: as §1

SK-BR-3 = assay: Inhibition of cell growth by colorimetric SRB assay, SK-BR-3; details: SK-BR-3, 48 hours exposure; for GI50 / CC50: Homo sapiens; for CC50: cell killing, read-out: LC50 (the source's name); for TGI: total growth inhibition
Summary of the method: as §1

A-549 = assay: Inhibition of cell growth by colorimetric SRB assay, A-549; details: Homo sapiens, A549, A-549, 48 hours exposure; for CC50: cell killing, read-out: LC50 (the source's name); for IC (total growth inhibition): read-out: TGI
Summary of the method: as §1

DU-145 = assay: Inhibition of cell growth by colorimetric SRB assay, DU-145; details: Homo sapiens, DU-145, 48 hours exposure; for CC50: cell killing, read-out: LC50 (the source's name); for IC (total growth inhibition): read-out: TGI
Summary of the method: as §1

IGROV-ET = assay: Inhibition of cell growth by colorimetric SRB assay, IGROV-ET; details: Homo sapiens, IGROV-ET, 48 hours exposure; for CC50: cell killing, read-out: LC50 (the source's name); for IC (total growth inhibition): read-out: TGI
Summary of the method: as §1

IGROV = assay: Inhibition of cell growth by colorimetric SRB assay, IGROV; details: Homo sapiens, 48 hours exposure; for CC50: cell killing, read-out: LC50 (the source's name); for IC (total growth inhibition): read-out: TGI
Summary of the method: as §1

K-562 = assay: Inhibition of cell growth by colorimetric SRB assay, K-562; details: Homo sapiens, K562, K-562, 48 hours exposure; for CC50: cell killing, read-out: LC50 (the source's name); for IC (total growth inhibition): read-out: TGI
Summary of the method: as §1

HT-29 = assay: Inhibition of cell growth by colorimetric SRB assay, HT-29; details: Homo sapiens, HT-29, 48 hours exposure; for CC50: cell killing, read-out: LC50 (the source's name); for IC (total growth inhibition): read-out: TGI
Summary of the method: as §1

HeLa-APL = assay: Inhibition of cell growth by colorimetric SRB assay, HELA-APL; details: Homo sapiens, HELA-APL, 48 hours exposure; for CC50: cell killing, read-out: LC50 (the source's name)
Summary of the method: as §1

LoVo-Dox = assay: Inhibition of cell growth by colorimetric SRB assay, LOVO-DOX; details: Homo sapiens, LOVO-DOX, 48 hours exposure; for LC50 (concentration for 50% cell killing): read-out: LC50; for IC (total growth inhibition): read-out: TGI
Summary of the method: as §1

LNCaP = assay: Inhibition of cell growth by colorimetric SRB assay, LN-caP; details: Homo sapiens, LN-caP, 48 hours exposure; for CC50: cell killing, read-out: LC50 (the source's name); for IC (total growth inhibition): read-out: TGI
Summary of the method: as §1

PANC-1 = assay: Inhibition of cell growth by colorimetric SRB assay, PANC-1; details: Homo sapiens, PANC-1, 48 hours exposure; for CC50: cell killing, read-out: LC50 (the source's name); for IC (total growth inhibition): read-out: TGI
Summary of the method: as §1

Question: For `C/C=C\[C@H](C)[C@H]1OC1(C)[C@@H](O[Si](C)(C)C(C)(C)C)[C@@H](CO[Si](C)(C)C(C)(C)C)C(=O)[C@H](CO[Si](C)(C)C(C)(C)C)[C@@H](CC(=O)CC)O[Si](C)(C)C(C)(C)C` (stereo partly shown) [Compound 19b], which GI50 (SK-MEL-28) is on record?
Answer: 12 µM

Question: And the CC50 (SK-MEL-28)?
Answer: 12 µM

Question: And the IC (total growth inhibition) (SK-MEL-28)?
Answer: 12 µM

Question: And the GI50 (HeLa)?
Answer: 12 µM

Question: What about the CC50 (HeLa) of the same molecule?
Answer: 12 µM

Question: What about the IC (total growth inhibition) (HeLa) of the same molecule?
Answer: 12 µM

Question: What about the GI50 (LoVo) of the same molecule?
Answer: 12 µM

Question: What about the LC50 (LoVo) of the same molecule?
Answer: 12 µM

Question: And the IC (total growth inhibition) (LoVo)?
Answer: 12 µM

Question: What about the GI50 (SK-BR-3) of the same molecule?
Answer: 6.15 µM

Question: What about the CC50 (SK-BR-3) of the same molecule?
Answer: 12 µM

Question: What about the TGI (SK-BR-3) of the same molecule?
Answer: 1.17E−05 Molar

Question: What about the GI50 (A-549) of the same molecule?
Answer: 12 µM

Question: What about the CC50 (A-549) of the same molecule?
Answer: 12 µM

Question: What about the IC (total growth inhibition) (A-549) of the same molecule?
Answer: 12 µM

Question: What about the GI50 (DU-145) of the same molecule?
Answer: 12 µM

Question: What about the CC50 (DU-145) of the same molecule?
Answer: 12 µM

Question: What about the IC (total growth inhibition) (DU-145) of the same molecule?
Answer: 12 µM

Question: And the GI50 (IGROV-ET)?
Answer: 12 µM

Question: And the CC50 (IGROV-ET)?
Answer: 12 µM

Question: And the IC (total growth inhibition) (IGROV-ET)?
Answer: 12 µM

Question: What about the GI50 (IGROV) of the same molecule?
Answer: 12 µM

Question: What about the CC50 (IGROV) of the same molecule?
Answer: 12 µM

Question: What about the IC (total growth inhibition) (IGROV) of the same molecule?
Answer: 12 µM

Question: What about the GI50 (K-562) of the same molecule?
Answer: 12 µM

Question: What about the CC50 (K-562) of the same molecule?
Answer: 12 µM

Question: What about the IC (total growth inhibition) (K-562) of the same molecule?
Answer: 12 µM

Question: And the GI50 (HT-29)?
Answer: 12 µM

Question: And the CC50 (HT-29)?
Answer: 12 µM

Question: And the IC (total growth inhibition) (HT-29)?
Answer: 12 µM

Question: And the CC50 (HeLa-APL)?
Answer: 12 µM

Question: And the GI50 (LoVo-Dox)?
Answer: 12 µM

Question: And the LC50 (concentration for 50% cell killing) (LoVo-Dox)?
Answer: 12 µM

Question: What about the IC (total growth inhibition) (LoVo-Dox) of the same molecule?
Answer: 12 µM

Question: And the GI50 (LNCaP)?
Answer: 12 µM

Question: What about the CC50 (LNCaP) of the same molecule?
Answer: 12 µM

Question: And the IC (total growth inhibition) (LNCaP)?
Answer: 12 µM

Question: What about the GI50 (PANC-1) of the same molecule?
Answer: 12 µM

Question: What about the CC50 (PANC-1) of the same molecule?
Answer: 12 µM

Question: And the IC (total growth inhibition) (PANC-1)?
Answer: 12 µM

Question: Which results are given for `C/C=C\[C@H](C)[C@H]1O[C@@]1(C)[C@@H](O)[C@@H](COC(C)=O)C(=O)[C@H](CO)[C@@H](O)CC(=O)CC` [Compound 47]?
Answer: GI50 (SK-MEL-28): 0.082 µM; CC50 (SK-MEL-28): 12.9 µM; IC (total growth inhibition) (SK-MEL-28): 0.984 µM; GI50 (HeLa): 0.0717 µM; CC50 (HeLa): 13.5 µM; IC (total growth inhibition) (HeLa): 0.434 µM; GI50 (LoVo): 0.0403 µM; LC50 (LoVo): 17.7 µM; IC (total growth inhibition) (LoVo): 0.374 µM; GI50 (SK-BR-3): 0.0231 µM; CC50 (SK-BR-3): 2.3 µM; TGI (SK-BR-3): 1.18E−07 Molar; GI50 (A-549): 0.151 µM; CC50 (A-549): 23.2 µM; IC (total growth inhibition) (A-549): 1.12 µM; GI50 (DU-145): 0.0815 µM; CC50 (DU-145): 24.1 µM; IC (total growth inhibition) (DU-145): 0.531 µM; GI50 (IGROV-ET): 0.152 µM; CC50 (IGROV-ET): 24.1 µM; IC (total growth inhibition) (IGROV-ET): 1.08 µM; GI50 (IGROV): 0.0639 µM; CC50 (IGROV): 24.1 µM; IC (total growth inhibition) (IGROV): 0.528 µM; GI50 (K-562): 0.294 µM; CC50 (K-562): 11.8 µM; IC (total growth inhibition) (K-562): 0.999 µM; GI50 (HT-29): 0.106 µM; CC50 (HT-29): 24.1 µM; IC (total growth inhibition) (HT-29): 3.11 µM; CC50 (HeLa-APL): 24.1 µM; GI50 (HeLa-APL; read-out: GI50): 79.6 nM; IC (total growth inhibition) (HeLa-APL; total growth inhibition, read-out: TGI): 0.591 µM; GI50 (LoVo-Dox): 0.216 µM; LC50 (concentration for 50% cell killing) (LoVo-Dox): 24.1 µM; IC (total growth inhibition) (LoVo-Dox): 24.1 µM; GI50 (LNCaP): 0.0813 µM; CC50 (LNCaP): 8.88 µM; IC (total growth inhibition) (LNCaP): 0.536 µM; GI50 (PANC-1): 0.0905 µM; CC50 (PANC-1): 19.5 µM; IC (total growth inhibition) (PANC-1): 2.38 µM
